Experimental data taken from patent US20220372014A1, “NEUROPROTECTIVE COMPOUNDS AND METHODS OF USE THEREOF” (The Johns Hopkins University, priority 2019, published 2022).
“Also recorded” adds a separate entry of the source.

Tests used:
MIF = target: T1, MIF (Homo sapiens, UniProt P14174); test: Nuclease assay of Example 3 (MIF inhibitory activity, Table 4); assay type: biochemical; conditions: nuclease assay of Example 3
T1 sequence (P14174 1-115): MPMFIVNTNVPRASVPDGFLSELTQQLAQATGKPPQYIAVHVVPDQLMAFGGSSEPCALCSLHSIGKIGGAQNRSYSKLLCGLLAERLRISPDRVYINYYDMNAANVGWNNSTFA
In short: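 Human genomic DNA (200 ng), pcDNA (200 ng) or PS^30-type substrates (1 μM) were incubated with MIF (0.25-8 μM final) in 10 mM Tris-HCl pH 7.0, 10 mM MgCl2, 1 mM DTT at 37 °C for 1 h (pcDNA, small substrates) or 4 h (genomic DNA). Cleavage was assessed by agarose or PAGE electrophoresis with EtBr staining and chemiluminescent detection of biotin-labelled DNA.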

HT 22 cells = test: TNF-α and z-VAD-induced necroptosis, Alamar blue; assay type: cell-based; conditions: 1 ng/ml TNF-α with 50 μM z-VAD
Description: (§1) Graphs represent mean±s.e.m. ***P<0.0005, two-way ANOVA followed by Tukey's post hoc test (n=3). A PARP inhibitor, ABT-888 is used for the positive control. FIGS. 12B and 12C show in vitro oxidoreductase and tautomerase activity of MIF/PAAN with compound 41, 56, 76, or 77. FIGS. 12D and 12E show Alamar blue cell viability assay from SH-SY5Y cells pre-incubated with compound 41, 56, 76, or 77 in response to 0.5 μM staurosporine (STS) or from HT 22 cells incubated with 1 ng/ml of TNF-α with 50 μM z-VAD. A pan caspase inhibitor, z-VAD or necrostatin (Nec-1) is used for the positive control and PARP inhibitor, ABT-888 is used for negative control. Bars represent mean±s.e.m. ***P<0.0005, two-way ANOVA followed by Tukey's post hoc test (n=3). […] Bars represent mean±s.e.m. **P<0.005, ***P<0.0005, two-way ANOVA followed by Tukey's post hoc test (n=3).
(§2) FIGS. 14A-14G show the characterization of compound 121. […] Bars represent means±s.e.m. ***P<0.0005, two-way ANOVA followed by Tukey's post hoc test (n=4). […] Bars represent mean±s.e.m. ***P<0.0005, two-way ANOVA followed by Tukey's post hoc test (n=4). […] Bars represent means±s.e.m. **P<0.005, ***P<0.0005, one-way ANOVA followed by Tukey's post hoc test (n=3). […] Bar represent mean±s.e.m. ***P<0.0005, one-way ANOVA followed by Tukey's post hoc test (n=3). […] Quantification of inhibition of PARP-1 activity by compound 56, compound 121 and ABT-888 is shown. Graphs represent mean±s.e.m. ***P<0.0005, two-way ANOVA followed by Tukey's post hoc test (n=3). FIGS. 14F and 14G show Alamar blue cell viability assay from SH-SY5Y cells pre-incubated with either compound 56 or 121 in response to (14F) 0.5 μM staurosporine (STS) or (14G) from HT 22 cells incubated with 1 ng/ml of TNF-α with 50 μM z-VAD. Bars represent mean±s.e.m. ***P<0.0005, two-way ANOVA followed by Tukey's post hoc test (n=5).
(§3) Cell death and viability assessment. Primary cultured cortical neurons were treated with 5 μg/ml of α-syn PFF for 14 days and cell death was determined by staining of all nuclei with 7 μM Hoechst 33342 and dead cell nuclei with 2 μM propidium iodide (PI) (Invitrogen). The numbers of total and dead cells were counted with the Axiovision 4.6 software (Carl Zeiss). Cell viability was determined by fluorescence at an excitation wavelength 570 nm and an emission wavelength 585 nm using Alamar Blue (Invitrogen).

SH-SY5Y cells = test: Staurosporine (STS)-induced apoptotic cell death, Alamar blue; assay type: cell-based; conditions: 0.5 μM STS
Description: as §1, §2, §3

[1] = tested on: HeLa cells or neuronal cells; test: Cell death assay of Example 3 (MNNG, alamarBlue; protection against parthanatos, Table 4); assay type: cell-based; conditions: 1 μM test compound, MNNG-induced cell death, alamarBlue
In short: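 HeLa or neuronal cells (1×10^4/well) were pretreated 1 h at 37° C with 1 μM compound, exposed to MNNG for 15 min, washed, then re-incubated 18 h with 1 μM compound. Viability was read by alamarBlue fluorescence (ex 560/em 590 nm). Cell death was expressed relative to control wells.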

| SMILES | (%) inhibition of MIF nuclease activity (MIF) [%] | TNFα and Z-VAD-induced necroptosis (HT 22 cells) | staurosporine (STS)-induced apoptotic cell death (SH-SY5Y cells) | (%) inhibition of cell death [1] [%] | (%) inhibition of cell death ([1]; 1 µM) [%] |
| --- | --- | --- | --- | --- | --- |
| COc1ccc(CC[C@H]2OC(=O)[C@@H]3CCCCN3C(=O)C(=O)C(C)(C)COC(=O)C=CCCN(C)C(=O)[C@@H]3CCCN3C(=O)[C@H](COC(C)(C)C)N(C)C(=O)C(c3ccccc3)NC(=O)[C@H](C)N(C)C(=O)COc3cc(F)cc2c3)cc1OC (mixture of isomers) [compound 121] | 71.2 | failed to inhibit | failed to inhibit | 90.1 | – |
| COc1ccc(CC[C@H]2OC(=O)[C@@H]3CCCCN3C(=O)C(=O)C(C)(C)COC(=O)C=CCCN(C)C(=O)[C@@H]3CCCN3C(=O)[C@H](COC(C)(C)C)N(C)C(=O)C(c3ccccc3)NC(=O)CN(C)C(=O)COc3cccc2c3)cc1OC (stereo partly shown) [compound 41] | 82.0 | not prevented | do not inhibit | – | 80.6 |
| COc1ccc(CC[C@H]2OC(=O)[C@@H]3CCCCN3C(=O)C(=O)C(C)(C)COC(=O)C=CCCN(C)C(=O)[C@@H]3CCCN3C(=O)[C@H](COC(C)(C)C)N(C)C(=O)C(c3ccccc3)NC(=O)[C@H](C)N(C)C(=O)COc3cccc2c3)cc1OC (stereo partly shown) [compound 56] | 70.8 | not prevented; also recorded: failed to inhibit | do not inhibit; also recorded: failed to inhibit | – | 81.5 |
| COc1ccc(CC[C@H]2OC(=O)[C@@H]3CCCCN3C(=O)C(=O)C(C)(C)COC(=O)C=CCCN(C)C(=O)CNC(=O)[C@H](C(C)C)N(C)C(=O)[C@@H](Cc3ccccc3)NC(=O)[C@H](CC(C)C)N(C)C(=O)CCC(=O)Nc3cccc2c3)cc1OC [compound 76] | 73.5 | not prevented | do not inhibit | 79.2 | – |
| COc1ccc(CC[C@H]2OC(=O)[C@@H]3CCCCN3C(=O)C(=O)C(C)(C)COC(=O)C=CCCN(C)C(=O)[C@H](C)NC(=O)[C@H](C(C)C)N(C)C(=O)[C@@H](Cc3ccccc3)NC(=O)[C@H](CC(C)C)N(C)C(=O)CCC(=O)Nc3cccc2c3)cc1OC [compound 77] | 75.5 | not prevented | do not inhibit | 77.9 | – |
| COc1ccc(CC[C@H]2OC(=O)[C@@H]3CCCCN3C(=O)C(=O)C(C)(C)COC(=O)C=CCCN(C)C(=O)[C@@H]3CCCN3C(=O)[C@H](CO)N(C)C(=O)C(c3ccccc3)NC(=O)[C@H](C)N(C)C(=O)COc3cccc2c3)cc1OC (stereo partly shown) [compound 97] | −5.3 | – | – | 41.4 | – |
